Measured values: patent US20050107616A1, “Alpha-ketoamide derivatives as cathepsin k inhibitors” (priority 2001, published 2005)

Molecular target: T1, human cathepsin K (Homo sapiens, UniProt P43235)
T1 construct: The proform of cathepsin K was converted to mature cathepsin K by brief exposure to pH 4; made in house; host or cells: baculovirus; Trichoplusia ni High Five cells (virus raised in Sf-9)
T1 sequence (P43235 115-329): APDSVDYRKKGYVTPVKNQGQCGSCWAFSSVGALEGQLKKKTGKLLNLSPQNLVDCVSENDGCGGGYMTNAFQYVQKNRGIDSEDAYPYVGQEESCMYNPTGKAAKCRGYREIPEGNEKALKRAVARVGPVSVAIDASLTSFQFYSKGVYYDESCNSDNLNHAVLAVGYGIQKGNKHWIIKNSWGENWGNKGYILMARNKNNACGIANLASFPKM
Test: Cathepsin K inhibition assay, fluorogenic substrate Cbz-Phe-Arg-AMC, progress curve method
Assay type: biochemical
Details: Table 1; human recombinant enzyme, pH 5.5, 30° C., 10 μM substrate; read-out: hCat K Ki
Description: All assays for cathepsin K were carried out with human and rat recombinant enzyme. Assays for cathepsins S Et V were also carried out with human recombinant enzyme. Assays for human cathepsins B. H. and L were carried out with enzyme, purchased from Athens Research and Technology, Inc., prepared from human liver tissue. […] A stock substrate solution of Cbz-Phe-Arg-AMC was prepared at a concentration of 50 mM in dimethyl sulfoxide. This substrate was diluted into the assay for a final substrate concentration of 10 μM in the rat cathepsin K, human cathepsin K, and human cathepsin B assays; a final substrate concentration of 5 μM in the human cathepsin L assay; and a final substrate concentration of 2 μM in the human cathepsin V assay.
All assays contained 10% dimethyl sulfoxide. […] All assays were conducted at 30° C. Product fluorescence (excitation at 360 nm; emission at 440 nm, (except cathepsin H which used excitation at 340 nm; emission at 420 nm)) was monitored with a PerSeptive Biosystems Cytofluor II fluorescence plate reader. Product progress curves were generated over 2.3 h monitoring the formation of 7-amino-4-methylcoumarin product (or β-naphthalamide for cathepsin H).
Two liters of Spodoptera frugiperda (Sf-9) cells (ATCC) were grown in Grace's Supplemented medium (Life Technologies) supplemented with 2 g/L glucose, 10% a fetal bovine serum (HyClone) and 0.10% pluronic F-68 (Life Technologies). […] The cells continued to grow for 72 h post-infection, before the virus was harvested by centrifugation at 1400× g for 30 min.
One and one-half liters of Trichoplusia ni (T. ni) High Five (TM) cells [JRH Biosciences, Woodland, Calif. […] Media were separated from cells at a rate of 1 L/min using the Centritech 100 (TM) continuous-flow centrifuge (DuPont) operating at 200× g.
Protein Purification: Media (human and rat) were filtered through a Whatman 3 filter, and then loaded onto a 25 mL Poros HS II (26 mm×47 mm) cation exchange column equilibrated in 25 mM sodium acetate at pH 5.5 (equilibration buffer). The column was washed until the absorbance reached the baseline value, and then the protein was eluted with a linear gradient from 0-2 M sodium chloride in the equilibration buffer. Column fractions were analyzed by SDS-PAGE, N-terminal sequencing, and mass spectrometry. Fractions containing the proform of cathepsin K were pooled and frozen at −80° C. The proform was concentrated in an Amicon Centriprep 10 and fractionated with a Superdex 75 column (26 mm×600 mm, Pharmacia) equilibrated in 400 mM sodium chloride, 25 mM sodium acetate at pH 5.5.
Cathepsin K Activation: The proform of cathepsin K was converted to mature cathepsin K by brief exposure to pH 4 in the presence of 5 mM L-cysteine. Typically, 5 mM L-cysteine was added to 10 mL of approximately 1 mg/mL procathepsin K. One mL of this solution was diluted ten-fold into 450 mM sodium acetate at pH 4.0 containing 5 mM L-cysteine. This solution was reacted at 23° C. for 2 min before neutralization with 2 mL 1.8 M sodium acetate at pH 6.0. The neutralized sample was added to the remaining 9 mL of procathepsin K. The mixture was incubated at 4° C. for 2-3 days. The activated cathepsin K was chromatographed on a Poros HS II column as described above.
Potential inhibitors were evaluated using the progress curve method. Assays were carried out in the presence of variable concentrations of test compound. Reactions were initiated by addition of buffered solutions of inhibitor and substrate to enzyme. Data analysis was conducted according to one of two procedures depending on the appearance of the progress curves in the presence of inhibitors. […] Ki values were calculated from IC50 values using equation 2 assuming a competitive model. [formula]

Compound	Ki [nM]
CCCC[C@H](NC(=O)O[C@@H](Cc1nnc(-c2ccccc2)o1)C(C)C)C(=O)C(=O)N[C@H](C)c1ccccc1 [Example 11, (1S)-2-methyl-1-[(5-phenyl-1,3,4-oxadiazol-2-yl)methyl]propyl(1S)-1-(oxo{[(1R)-1-phenylethyl]amino}acetyl)pentylcarbamate]	100 to 10000
CCCC[C@H](NC(=O)O[C@H](Cc1nnc(-c2ccccc2)o1)C(C)(C)CC)C(=O)C(=O)N[C@H](C)c1ccccc1 [Example 8, (1R)-2,2-dimethyl-1-[(5-phenyl-1,3,4-oxadiazol-2-yl)methyl]butyl (1S)-1-(oxo{[(1R)-1-phenylethyl]amino}acetyl)pentylcarbamate]	1 to 100
CCCC[C@H](NC(=O)O[C@H](Cc1nnc(-c2ccccc2)o1)C(C)C)C(=O)C(=O)N[C@H](C)c1ccccc1 [Example 10, (1R)-2-methyl-1-[(5-phenyl-1,3,4-oxadiazol-2-yl)methyl]propyl(1S)-1-(oxo{[(1R)-1-phenylethyl]amino}acetyl)pentylcarbamate]	0.01 to 1

More lines, now with the values ahead:

Ki [nM]	Compound
0.01 to 1	CCCC[C@H](NC(=O)O[C@H](Cc1nnc(-c2ccc(F)cc2)o1)C(C)(C)C)C(=O)C(=O)Nc1ccn[nH]1 [Example 23, (1R)-1-{[5-(4-fluorophenyl)-1,3,4-oxadiazol-2-yl]methyl}-2,2-dimethylpropyl(1S)-1-[oxo(1H-pyrazol-5-ylamino)acetyl]pentylcarbamate]
100 to 10000	CCCC[C@H](NC(=O)O[C@@H](Cc1nnc(-c2ccc(C(F)(F)F)cc2)o1)C(C)(C)C)C(=O)C(=O)N[C@H](C)c1ccccc1 [Example 18, (1S)-2,2-dimethyl-1-({5-[4-(trifluoromethyl)phenyl]-1,3,4-oxadiazol-2-yl}methyl)propyl(1S)-1-(oxo{[(1R)-1-phenylethyl]amino}acetyl)pentylcarbamate]
